Reference: patent publication US9790210B2, “N-(monocyclic aryl),N'-pyrazolyl-urea, thiourea, guanidine and cyanoguanidine compounds as TrkA kinase inhibitors” (Array BioPharma Inc., priority 2012, dated 2017)

Experiments:
ARKS = molecular target: T1, ARKS (Homo sapiens, UniProt O60285); test: KinaseProfiler; format: biochemical; settings: 10 μM, ATP near Km
T1 construct: purchased Millipore (KinaseProfiler service)
Method: (§1) A representative compound (Example 15) of the invention was tested for off-target kinase activity at a concentration of 10 μM by Millipore, Inc. in their KinaseProfiler™ service against all the kinases available in their full kinase panel. The compound was run in duplicate at a concentration of ATP near the Km for each individual kinase according to Millipore's specifications. The results are shown in Table B. Data are reported as percent of control (POC) and are the average of the two replicates.

BTK = molecular target: T2, BTK (Homo sapiens, UniProt Q06187); test: KinaseProfiler; format: biochemical; settings: 10 μM, ATP near Km
T2 construct: purchased Millipore (KinaseProfiler service)
Method: as §1

BrSK1 = molecular target: T3, BrSK1 (Homo sapiens, UniProt Q8TDC3); test: KinaseProfiler; format: biochemical; settings: 10 μM, ATP near Km
T3 construct: purchased Millipore (KinaseProfiler service)
Method: as §1

CAMK1d = molecular target: T4, CAMK1d (Homo sapiens, UniProt Q8IU85); test: KinaseProfiler; format: biochemical; settings: 10 μM, ATP near Km
T4 construct: purchased Millipore (KinaseProfiler service)
Method: as §1

CDK2/cyclinA = molecular target: T5, CDK2/cyclinA (Homo sapiens, UniProt P24941); test: KinaseProfiler; format: biochemical; settings: 10 μM, ATP near Km
T5 construct: purchased Millipore, Inc. (KinaseProfiler service)
Method: as §1

CLK2 = molecular target: T6, CLK2 (Homo sapiens, UniProt P49760); test: KinaseProfiler; format: biochemical; settings: 10 μM, ATP near Km
T6 construct: purchased Millipore, Inc. (KinaseProfiler service)
Method: as §1

DCAMKL2 = molecular target: T7, DCAMKL2 (Homo sapiens, UniProt Q8N568); test: KinaseProfiler; format: biochemical; settings: 10 μM, ATP near Km
T7 construct: purchased Millipore, Inc. (KinaseProfiler service)
Method: as §1

EphB2 = molecular target: T8, EphB2 (Homo sapiens, UniProt P29323); test: KinaseProfiler; format: biochemical; settings: 10 μM, ATP near Km
T8 construct: purchased Millipore, Inc. (KinaseProfiler service)
Method: as §1

ErbB4 = molecular target: T9, ErbB4 (Homo sapiens, UniProt Q15303); test: KinaseProfiler; format: biochemical; settings: 10 μM, ATP near Km
T9 construct: purchased Millipore, Inc. (KinaseProfiler service)
Method: as §1

FAK = molecular target: T10, FAK (Homo sapiens, UniProt Q05397); test: KinaseProfiler; format: biochemical; settings: 10 μM, ATP near Km
T10 construct: purchased Millipore, Inc. (KinaseProfiler service)
Method: as §1

FGFR4 = molecular target: T11, FGFR4 (Homo sapiens, UniProt P22455); test: KinaseProfiler; format: biochemical; settings: 10 μM, ATP near Km
T11 construct: purchased Millipore, Inc. (KinaseProfiler service)
Method: as §1

GRK7 = molecular target: T12, GRK7 (Homo sapiens, UniProt Q8WTQ7); test: KinaseProfiler; format: biochemical; settings: 10 μM, ATP near Km
T12 construct: purchased Millipore, Inc. (KinaseProfiler service)
Method: as §1

HIPK2 = molecular target: T13, HIPK2 (Homo sapiens, UniProt Q9H2X6); test: KinaseProfiler; format: biochemical; settings: 10 μM, ATP near Km
T13 construct: purchased Millipore, Inc. (KinaseProfiler service)
Method: as §1

IR Activated = molecular target: T14, IR Activated (Homo sapiens, UniProt P06213); test: KinaseProfiler; format: biochemical; settings: 10 μM, ATP near Km
T14 construct: purchased Millipore, Inc. (KinaseProfiler service)
Method: as §1

MINK = molecular target: T15, MINK (Homo sapiens, UniProt Q8N4C8); test: KinaseProfiler; format: biochemical; settings: 10 μM, ATP near Km
T15 construct: purchased Millipore, Inc. (KinaseProfiler service)
Method: as §1

MLK1 = molecular target: T16, MLK1 (Homo sapiens, UniProt P80192); test: KinaseProfiler; format: biochemical; settings: 10 μM, ATP near Km
T16 construct: purchased Millipore, Inc. (KinaseProfiler service)
Method: as §1

MRCKalpha = molecular target: T17, MRCKalpha (Homo sapiens, UniProt Q5VT25); test: KinaseProfiler; format: biochemical; settings: 10 μM, ATP near Km
T17 construct: purchased Millipore, Inc. (KinaseProfiler service)
Method: as §1

MSSK1 = molecular target: T18, MSSK1 (Homo sapiens, UniProt Q9UPE1); test: KinaseProfiler; format: biochemical; settings: 10 μM, ATP near Km
T18 construct: purchased Millipore, Inc. (KinaseProfiler service)
Method: as §1

NEK3 = molecular target: T19, NEK3 (Homo sapiens, UniProt P51956); test: KinaseProfiler; format: biochemical; settings: 10 μM, ATP near Km
T19 construct: purchased Millipore, Inc. (KinaseProfiler service)
Method: as §1

PDGFRalpha = molecular target: T20, PDGFRalpha (Homo sapiens, UniProt P16234); test: KinaseProfiler; format: biochemical; settings: 10 μM, ATP near Km
T20 construct: purchased Millipore, Inc. (KinaseProfiler service)
Method: as §1

PKAC-alpha = molecular target: T21, PKAC-alpha (Homo sapiens, UniProt P17612); test: KinaseProfiler; format: biochemical; settings: 10 μM, ATP near Km
T21 construct: purchased Millipore, Inc. (KinaseProfiler service)
Method: as §1

PKCdelta = molecular target: T22, PKCdelta (Homo sapiens, UniProt Q05655); test: KinaseProfiler; format: biochemical; settings: 10 μM, ATP near Km
T22 construct: purchased Millipore, Inc. (KinaseProfiler service)
Method: as §1

PKCtheta = molecular target: T23, PKCtheta (Homo sapiens, UniProt Q04759); test: KinaseProfiler; format: biochemical; settings: 10 μM, ATP near Km
T23 construct: purchased Millipore, Inc. (KinaseProfiler service)
Method: as §1

Plk3 = molecular target: T24, Plk3 (Homo sapiens, UniProt Q9H4B4); test: KinaseProfiler; format: biochemical; settings: 10 μM, ATP near Km
T24 construct: purchased Millipore, Inc. (KinaseProfiler service)
Method: as §1

Rsk4 = molecular target: T25, Rsk4 (Homo sapiens, UniProt Q9UK32); test: KinaseProfiler; format: biochemical; settings: 10 μM, ATP near Km
T25 construct: purchased Millipore, Inc. (KinaseProfiler service)
Method: as §1

SGK3 = molecular target: T26, SGK3 (Homo sapiens, UniProt Q96BR1); test: KinaseProfiler; format: biochemical; settings: 10 μM, ATP near Km
T26 construct: purchased Millipore, Inc. (KinaseProfiler service)
Method: as §1

SRPK1 = molecular target: T27, SRPK1 (Homo sapiens, UniProt Q96SB4); test: KinaseProfiler; format: biochemical; settings: 10 μM, ATP near Km
T27 construct: purchased Millipore, Inc. (KinaseProfiler service)
Method: as §1

ZAP-70 = molecular target: T28, ZAP-70 (Homo sapiens, UniProt P43403); test: KinaseProfiler; format: biochemical; settings: 10 μM, ATP near Km
T28 construct: purchased Millipore, Inc. (KinaseProfiler service)
Method: as §1

eEF-2K = molecular target: T29, eEF-2K (Homo sapiens, UniProt O00418); test: KinaseProfiler; format: biochemical; settings: 10 μM, ATP near Km
T29 construct: purchased Millipore, Inc. (KinaseProfiler service)
Method: as §1

p38beta = molecular target: T30, p38beta (Homo sapiens, UniProt Q15759); test: KinaseProfiler; format: biochemical; settings: 10 μM, ATP near Km
T30 construct: purchased Millipore, Inc. (KinaseProfiler service)
Method: as §1

TrkA = TrkA (Homo sapiens, UniProt P04629); test: TrkA LanthaScreen Eu Kinase Binding Assay; design: 6HIS tagged cytoplasmic domain from Invitrogen, Catalog No. PV3144; purchased Invitrogen PV3144; settings: averaged IC50; TR-FRET binding assay; read-out: TrkA Enzyme IC50
Method: TrkA binding activity was determined in a TrkA LanthaScreen™ Eu Kinase Binding Assay. 5 nM His-tagged recombinant human TrkA (6HIS tagged cytoplasmic domain from Invitrogen, Catalog No. PV3144) was incubated with 4 nM Alexa-Fluor® Tracer 236 (Invitrogen Cat. No. PV5592), 2 nM biotinylated anti-His (Invitrogen Cat. No. PV6090), and 2 nM europium-labeled Streptavidin (Invitrogen Cat. No. PV5899), in buffer (25 mM MOPS, pH 7.5, 5 mM MgCl2, 0.005% Triton X-100). Three fold serial dilutions of compounds of the invention in DMSO were added to a final percentage of 2% DMSO. After 60-minute incubation at 22° C., the reaction was measured using the EnVision mutlimode plate reader (PerkinElmer) via TR-FRET dual wavelength detection at […]. The percent of control was calculated using a ratiometric emission factor. The IC50 values were determined by fitting a four parameter model to the percent of control data.
Table A provides averaged IC50 values for compounds of the invention when tested in the assay of Example A, where A represents an averaged IC50 value<100 nM; B represents an averaged IC50 value from 100 to 1,000 nM; and C represents an averaged IC50 value from 1,000 to 10,000 nM.

T13 sequence (Q9H2X6 whole entry): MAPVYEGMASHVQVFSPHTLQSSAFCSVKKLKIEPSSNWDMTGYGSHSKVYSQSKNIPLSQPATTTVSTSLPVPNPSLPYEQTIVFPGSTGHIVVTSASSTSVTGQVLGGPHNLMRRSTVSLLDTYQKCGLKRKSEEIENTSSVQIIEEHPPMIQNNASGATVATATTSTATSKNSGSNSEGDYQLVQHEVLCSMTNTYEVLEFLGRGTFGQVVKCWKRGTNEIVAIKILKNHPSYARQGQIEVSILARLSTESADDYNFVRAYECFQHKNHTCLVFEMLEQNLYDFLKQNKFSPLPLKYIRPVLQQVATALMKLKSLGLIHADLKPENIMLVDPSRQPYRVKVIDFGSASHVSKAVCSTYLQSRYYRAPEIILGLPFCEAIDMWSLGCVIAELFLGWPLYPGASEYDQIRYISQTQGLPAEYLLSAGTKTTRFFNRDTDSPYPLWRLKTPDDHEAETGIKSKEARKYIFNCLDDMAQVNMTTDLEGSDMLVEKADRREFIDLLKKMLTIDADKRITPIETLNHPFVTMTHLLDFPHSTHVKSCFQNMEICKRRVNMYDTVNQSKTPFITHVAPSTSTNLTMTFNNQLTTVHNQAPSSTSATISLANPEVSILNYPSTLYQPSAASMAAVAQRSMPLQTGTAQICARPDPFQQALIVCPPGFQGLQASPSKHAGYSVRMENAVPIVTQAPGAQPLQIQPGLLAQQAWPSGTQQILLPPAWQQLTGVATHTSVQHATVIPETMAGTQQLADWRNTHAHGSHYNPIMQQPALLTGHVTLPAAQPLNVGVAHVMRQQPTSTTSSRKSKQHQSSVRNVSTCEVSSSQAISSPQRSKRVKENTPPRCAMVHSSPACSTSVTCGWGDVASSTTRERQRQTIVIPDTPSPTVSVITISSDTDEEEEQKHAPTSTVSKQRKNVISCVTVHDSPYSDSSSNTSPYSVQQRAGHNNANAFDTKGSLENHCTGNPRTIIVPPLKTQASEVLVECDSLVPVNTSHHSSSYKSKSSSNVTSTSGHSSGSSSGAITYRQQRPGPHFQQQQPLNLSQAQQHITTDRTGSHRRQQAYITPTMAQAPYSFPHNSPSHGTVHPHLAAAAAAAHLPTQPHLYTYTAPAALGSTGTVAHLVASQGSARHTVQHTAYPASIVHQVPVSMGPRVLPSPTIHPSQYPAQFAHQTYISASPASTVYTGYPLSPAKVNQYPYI
T24 sequence (Q9H4B4 whole entry): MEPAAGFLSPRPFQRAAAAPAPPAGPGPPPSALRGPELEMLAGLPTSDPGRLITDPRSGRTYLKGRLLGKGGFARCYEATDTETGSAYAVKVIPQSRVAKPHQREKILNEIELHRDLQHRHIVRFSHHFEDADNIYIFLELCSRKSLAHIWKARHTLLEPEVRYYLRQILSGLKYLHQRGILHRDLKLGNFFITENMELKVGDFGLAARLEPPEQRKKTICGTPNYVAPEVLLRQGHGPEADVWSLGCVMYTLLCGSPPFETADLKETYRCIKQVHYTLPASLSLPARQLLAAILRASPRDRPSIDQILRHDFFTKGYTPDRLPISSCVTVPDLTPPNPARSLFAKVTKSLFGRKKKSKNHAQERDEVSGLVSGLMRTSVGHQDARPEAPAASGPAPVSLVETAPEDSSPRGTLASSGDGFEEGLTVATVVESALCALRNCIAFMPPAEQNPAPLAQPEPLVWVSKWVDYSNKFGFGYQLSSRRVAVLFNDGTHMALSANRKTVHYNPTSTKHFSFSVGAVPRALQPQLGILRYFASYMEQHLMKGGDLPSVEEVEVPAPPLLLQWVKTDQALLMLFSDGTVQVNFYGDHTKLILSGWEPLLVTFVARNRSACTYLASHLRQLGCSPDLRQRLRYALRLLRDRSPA
T14 sequence (P06213 1005-1310 limits assumed): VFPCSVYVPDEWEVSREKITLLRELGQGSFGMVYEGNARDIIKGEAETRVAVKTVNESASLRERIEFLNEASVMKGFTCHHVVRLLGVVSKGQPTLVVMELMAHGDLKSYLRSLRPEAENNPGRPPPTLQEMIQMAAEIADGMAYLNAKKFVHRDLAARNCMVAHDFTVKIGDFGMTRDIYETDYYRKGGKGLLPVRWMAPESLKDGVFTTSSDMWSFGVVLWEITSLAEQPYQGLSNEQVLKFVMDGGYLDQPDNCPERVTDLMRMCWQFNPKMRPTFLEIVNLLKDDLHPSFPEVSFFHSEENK
T17 sequence (Q5VT25 whole entry): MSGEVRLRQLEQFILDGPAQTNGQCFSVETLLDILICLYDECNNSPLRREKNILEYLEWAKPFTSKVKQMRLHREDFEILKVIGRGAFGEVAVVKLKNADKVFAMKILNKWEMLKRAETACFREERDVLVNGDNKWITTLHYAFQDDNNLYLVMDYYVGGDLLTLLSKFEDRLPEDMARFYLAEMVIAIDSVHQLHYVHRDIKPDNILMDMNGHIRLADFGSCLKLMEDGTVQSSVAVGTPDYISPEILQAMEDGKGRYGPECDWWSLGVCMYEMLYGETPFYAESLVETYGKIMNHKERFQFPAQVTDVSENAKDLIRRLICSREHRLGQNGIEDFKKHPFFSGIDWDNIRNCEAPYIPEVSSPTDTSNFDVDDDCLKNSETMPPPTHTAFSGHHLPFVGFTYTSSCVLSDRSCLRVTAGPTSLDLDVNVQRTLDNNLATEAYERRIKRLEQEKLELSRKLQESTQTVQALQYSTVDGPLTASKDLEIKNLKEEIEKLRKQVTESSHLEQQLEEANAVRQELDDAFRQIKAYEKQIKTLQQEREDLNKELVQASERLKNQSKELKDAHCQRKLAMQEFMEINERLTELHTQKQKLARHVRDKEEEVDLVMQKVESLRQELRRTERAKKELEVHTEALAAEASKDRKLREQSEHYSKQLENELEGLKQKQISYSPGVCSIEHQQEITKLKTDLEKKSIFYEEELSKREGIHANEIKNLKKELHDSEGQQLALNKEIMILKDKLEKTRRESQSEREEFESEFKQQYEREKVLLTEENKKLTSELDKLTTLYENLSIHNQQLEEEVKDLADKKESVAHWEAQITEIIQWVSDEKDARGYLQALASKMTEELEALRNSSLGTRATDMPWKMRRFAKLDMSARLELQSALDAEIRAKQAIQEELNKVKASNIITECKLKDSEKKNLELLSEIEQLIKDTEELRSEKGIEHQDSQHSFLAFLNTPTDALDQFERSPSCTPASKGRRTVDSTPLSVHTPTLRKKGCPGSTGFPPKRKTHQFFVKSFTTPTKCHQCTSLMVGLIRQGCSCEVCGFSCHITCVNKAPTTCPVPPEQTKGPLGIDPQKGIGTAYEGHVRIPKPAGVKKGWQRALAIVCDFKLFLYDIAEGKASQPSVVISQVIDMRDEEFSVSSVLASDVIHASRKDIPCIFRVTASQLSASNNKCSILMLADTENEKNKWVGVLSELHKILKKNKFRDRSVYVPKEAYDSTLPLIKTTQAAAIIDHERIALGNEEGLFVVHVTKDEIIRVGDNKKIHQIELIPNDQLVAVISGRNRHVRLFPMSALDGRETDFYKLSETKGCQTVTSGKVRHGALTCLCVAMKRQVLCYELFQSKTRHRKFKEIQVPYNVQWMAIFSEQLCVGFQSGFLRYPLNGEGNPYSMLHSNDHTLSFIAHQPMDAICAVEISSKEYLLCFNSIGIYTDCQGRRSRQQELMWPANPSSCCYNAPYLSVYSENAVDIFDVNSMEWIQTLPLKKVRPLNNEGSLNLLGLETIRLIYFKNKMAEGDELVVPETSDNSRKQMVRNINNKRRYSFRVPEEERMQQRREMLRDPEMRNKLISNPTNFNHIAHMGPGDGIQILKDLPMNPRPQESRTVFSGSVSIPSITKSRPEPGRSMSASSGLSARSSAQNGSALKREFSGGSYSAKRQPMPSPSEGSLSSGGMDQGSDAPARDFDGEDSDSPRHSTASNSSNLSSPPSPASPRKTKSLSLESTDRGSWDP
T26 sequence (Q96BR1 whole entry): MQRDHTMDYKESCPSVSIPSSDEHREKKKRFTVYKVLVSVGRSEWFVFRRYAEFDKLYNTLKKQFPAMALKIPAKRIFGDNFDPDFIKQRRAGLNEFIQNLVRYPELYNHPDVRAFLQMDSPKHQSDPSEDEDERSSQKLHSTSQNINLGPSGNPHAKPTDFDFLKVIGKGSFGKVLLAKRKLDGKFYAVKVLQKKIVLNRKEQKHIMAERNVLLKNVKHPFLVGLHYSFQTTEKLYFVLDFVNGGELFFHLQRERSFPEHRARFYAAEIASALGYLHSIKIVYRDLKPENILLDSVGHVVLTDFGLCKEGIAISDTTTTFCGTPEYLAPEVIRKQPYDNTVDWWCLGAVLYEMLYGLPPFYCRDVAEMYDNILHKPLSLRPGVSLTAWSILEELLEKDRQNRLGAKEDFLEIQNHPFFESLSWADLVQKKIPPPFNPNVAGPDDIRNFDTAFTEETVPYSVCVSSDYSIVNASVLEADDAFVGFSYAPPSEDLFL
T1 sequence (O60285 whole entry): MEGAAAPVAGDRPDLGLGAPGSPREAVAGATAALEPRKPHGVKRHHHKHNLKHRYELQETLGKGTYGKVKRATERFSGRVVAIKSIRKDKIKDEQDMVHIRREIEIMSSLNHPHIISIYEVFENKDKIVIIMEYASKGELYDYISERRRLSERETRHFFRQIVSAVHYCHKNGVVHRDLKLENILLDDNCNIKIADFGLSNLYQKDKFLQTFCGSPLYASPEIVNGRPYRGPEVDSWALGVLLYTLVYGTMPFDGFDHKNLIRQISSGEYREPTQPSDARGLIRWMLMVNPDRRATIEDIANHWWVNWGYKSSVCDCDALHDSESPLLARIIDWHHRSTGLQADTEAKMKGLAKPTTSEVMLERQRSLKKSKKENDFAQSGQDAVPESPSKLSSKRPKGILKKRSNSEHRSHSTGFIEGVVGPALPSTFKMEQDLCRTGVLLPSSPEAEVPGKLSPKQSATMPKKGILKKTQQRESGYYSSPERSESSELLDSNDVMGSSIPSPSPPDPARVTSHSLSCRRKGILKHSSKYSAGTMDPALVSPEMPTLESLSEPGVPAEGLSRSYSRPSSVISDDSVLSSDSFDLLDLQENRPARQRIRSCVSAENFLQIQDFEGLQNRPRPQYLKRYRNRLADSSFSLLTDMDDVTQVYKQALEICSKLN

For COCCCc1cc(Cl)c(Cl)cc1NC(=O)Nc1c(C)c(-c2cnn(C)c2)nn1-c1ccccc1 [Example 15, 1-(4,5-dichloro-2-(3-methoxypropyl)phenyl)-3-(1′,4-dimethyl-1-phenyl-1H,1′H-[3,4′-bipyrazol]-5-yl)urea], the “Avg POC” value (ARKS) was 97.5 POC, the “Avg POC” value (BTK) was 119.5 POC and the “Avg POC” value (BrSK1) was 123.5 POC. The “Avg POC” value (CAMK1d) was 103 POC, the “Avg POC” value (CDK2/cyclinA) was 112.5 POC and the “Avg POC” value (CLK2) was 111.5 POC. The “Avg POC” value (DCAMKL2) was 136 POC, the “Avg POC” value (EphB2) was 112.5 POC and the “Avg POC” value (ErbB4) was 118.5 POC. For the same molecule, the “Avg POC” value (FAK) was 103.5 POC, the “Avg POC” value (FGFR4) was 120 POC and the “Avg POC” value (GRK7) was 115 POC. The “Avg POC” value (HIPK2) was 99.5 POC, the “Avg POC” value (IR Activated) was 119.5 POC and the “Avg POC” value (MINK) was 121.5 POC. For the same molecule, the “Avg POC” value (MLK1) was 110.5 POC, the “Avg POC” value (MRCKalpha) was 137 POC and the “Avg POC” value (MSSK1) was 122 POC. The “Avg POC” value (NEK3) was 120 POC, the “Avg POC” value (PDGFRalpha) was 117.5 POC and the “Avg POC” value (PKAC-alpha) was 149 POC. The “Avg POC” value (PKCdelta) was 96 POC, the “Avg POC” value (PKCtheta) was 105 POC and the “Avg POC” value (Plk3) was 109 POC. For the same molecule, the “Avg POC” value (Rsk4) was 105 POC, the “Avg POC” value (SGK3) was 132 POC and the “Avg POC” value (SRPK1) was 112.5 POC. The “Avg POC” value (ZAP-70) was 141.5 POC, the “Avg POC” value (eEF-2K) was 181 POC and the “Avg POC” value (p38beta) was 106.5 POC. The IC50 (TrkA) was less than 100 nM.
